Reference: patent US20230364074A1, “Compounds and Compositions for Disrupting Programmed Ribosomal Frameshifting” (YALE UNIVERSITY, priority 2020, published 2023)

System: SARS-CoV-2 FSE mutants
Assay type: cell-based

CCNCC1CCN(c2c(F)cc3c(=O)c(C(=O)O)cn(CC)c3c2F)C1 (centres unmarked) [merafloxacin, 1-ethyl-7-[3-(ethylaminomethyl)pyrrolidin-1-yl]-6,8-difluoro-4-oxoquinoline-3-carboxylic acid]
frameshifting inhibition in structure-perturbing FSE mutants: significantly inhibited frameshifting in all variants
−1 PRF inhibition in naturally occurring FSE variants: inhibited −1 PRF in all variants with similar efficacy
